Assays:
[1] = octanol/water partition (K octanol/water); format: physicochemical
Description: Lobinaline and the “mono”-N-oxide were separated from plant and culture material by acid/base extraction, but the bi-N-oxide was derived from lobinaline using 3-chloroperbenzoic acid. All these compounds were separated by column chromatography with identity and purity confirmed by LC/MS.

[2] = tested on: rat striatal synaptosomes; assay: [3H]DA release from rat striatal synaptosomes; format: biochemical; conditions: preloaded synaptosomes; 10-500 uM tested; 30 min at 37° C
Protocol: [3H]DA release from rat striatal synaptosomes: Synaptosomes preloaded with [3H]DA were exposed to lobinaline (10-500 uM), 30 min @ 37° C.). [3H]DA release was calculated by subtraction of activity following drug treatment from activity in the absence of drug.

nicAChR = assay: 45Ca2+ entry into SHSY5Y cells; format: cell-based; conditions: conclusion from 45Ca2+ entry
Description: Effects of lobinaline and nicotine on ^45Ca^2+ entry into SHSY5Y cells: nicAChR function can be evaluated semi-quantitatively in this cell line by measuring ^45Ca^2+ entry in response to nicotine. […] The lobinaline N-oxides have not yet been tested in this system.

DAT = DAT (Rattus norvegicus, UniProt P23977); assay: dopamine uptake in striatum of isoflurane-anesthetized rats by in vivo electrochemistry, Examples 19-20; design: DA clearance in striatum and nucleus accumbens of urethane-anesthetized SD rats; from tissue; host or cells: striatum / nucleus accumbens of living anesthetized SD rats; species or system SD rats
Sequence of DAT (P23977 whole entry): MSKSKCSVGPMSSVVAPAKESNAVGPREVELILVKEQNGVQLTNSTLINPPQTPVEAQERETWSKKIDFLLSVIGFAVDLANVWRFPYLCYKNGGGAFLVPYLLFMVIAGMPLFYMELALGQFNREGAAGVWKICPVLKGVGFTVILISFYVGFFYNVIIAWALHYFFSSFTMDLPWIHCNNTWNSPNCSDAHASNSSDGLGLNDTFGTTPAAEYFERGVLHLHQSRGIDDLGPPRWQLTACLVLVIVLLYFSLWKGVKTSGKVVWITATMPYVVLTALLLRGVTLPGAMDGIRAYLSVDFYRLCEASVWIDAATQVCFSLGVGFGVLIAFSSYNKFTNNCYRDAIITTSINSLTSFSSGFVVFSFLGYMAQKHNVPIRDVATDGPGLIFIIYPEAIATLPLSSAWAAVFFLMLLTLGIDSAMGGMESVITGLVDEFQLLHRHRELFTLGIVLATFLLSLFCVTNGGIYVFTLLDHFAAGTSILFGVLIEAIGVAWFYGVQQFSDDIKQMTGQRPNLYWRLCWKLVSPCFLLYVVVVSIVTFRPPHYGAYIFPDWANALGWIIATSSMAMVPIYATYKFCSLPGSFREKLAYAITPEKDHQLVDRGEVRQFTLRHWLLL
Protocol: After obtaining reproducible signals for locally applied DA (50-75 nl, 200 μM) to produce a control DA peak height below 1 uM, vehicle or drug was locally applied slowly over 10-30 sec (˜500 nl 250 μM), then 60 sec later the next application of DA was performed, with subsequent DA applications at 5-min intervals for 25 min. […] The DA kinetic data from each animal were analyzed using FAST software (Quanteon, LLC, Nicholasville KY USA). […] These parameters were compared between pre- and post-drug application by one-way ANOVA with Tukey's post hoc analysis, with significance assigned at p<0.05.

## CN1CCCC2C(c3ccccc3)C(C3=NCCCC3)C(c3ccccc3)CC21 (stereo not drawn) [lobinaline]
[1]
  K octanol/water (Ko/w): 4.8
[2]
  concentration causing significant release of [3H]DA: 500 µM
nicAChR
  mode of action at nicAChRs: weak partial agonist
DAT; any brain region, n=8-36
  release of endogenous DA: Neither lobinaline nor its N-oxides ever caused release of endogenous DA
DAT; relative to % control
  effect on DA clearance parameters: small, but significant, reduction in all DA clearance parameters
DAT; single local application ~500 nl 250 μM, striatum, FIGS. 10, 11
  effect on amplitude of the DA signal: transient, a non-significant decrease in amplitude

— patent publication US12539298B2, “Lobinaline N-oxides as positive allosteric modulators of the dopamine transporter with potential value in the treatment of substance abuse disorders” (University of Kentucky Research Foundation, priority 2019, dated 2026)
